In US11497776B2, “Combination therapy for a stable and long term engraftment” (Yeda Research and Development Co. Ltd., priority 2011, dated 2022):
Like-named read-outs stand apart in the source and are kept apart here.

Key:
[1] = system: allogeneic recipients (C3H/Hen) transplanted with Balb/c-Nude BM cells
Method: (§1) Low (5×10^6) and high dose (25×10^6) Balb/c-Nude BM cells (providing a source of BM depleted of T cells) were transplanted into allogeneic recipients (C3H/Hen) on day 0 following in-vivo T cell debulking (TCD) with anti-CD4 (clone GK1.5) and anti-CD8 (clone 53.6.72) antibodies (300 μg each; Bio X Cell, NH, USA) delivered on day −6, and exposure to 2.0 Gy total body irradiation (TBI) on day −1. High dose Cyclophosphamide (CY, 100 mg/kg, Baxter Oncology, Germany) was administered on days +3 and +4 post transplant and donor type chimerism was evaluated 35 and 95 days post transplant using fluorescein anti-host and donor H-2 antibodies (e.g. FlTC labeled anti-H-2D^d antibody specific for donor type cells and PE labeled anti-H-2K^k antibody specific for host type cells).
Recipient mice (C3H/Hen) were treated with a conditioning protocol prior to transplantation of a T cell depleted bone marrow transplant. Specifically, mice were in-vivo treated with T cell debulking (TCD) using anti-CD4 and anti-CD8 antibodies delivered on day −6 and by exposure to 2.0 Gy total body irradiation (TBI) on day −1. Next, low (5×10^6) or high dose (25×10^6) Balb/c-Nude BM cells (providing a source of BM depleted of T cells, as Nude mice have miniscule numbers of mature T cells) were transplanted into allogeneic recipients (C3H/Hen) on day 0. High dose cyclophosphamide (CY, 100 mg/kg) was administered on days +3 and +4 post transplant. Evaluation of bone marrow cell engraftment was evaluated by donor type chimerism at 35 and 95 days post transplant.
as §1, with “High” for “Low (5×10^6) and high”, “different doses of irradiation ranging from 1 to 3.5” for “2.0”, “TBI” for “total body irradiation (TBI)”, “30” for “35 and 95”
High dose Cyclophosphamide (CY) was administered on days +3 and +4 post transplant and donor type chimerism was evaluated at 30 days post transplant.
as §1, with “High dose” for “Low (5×10^6) and high dose”, “−1. Different doses of” for “−1. High dose”, “mg/kg, 125 mg/kg or 150 mg/kg,” for “mg/kg,”, “Germany) were” for “Germany) was”, “evaluated 30” for “evaluated 35 and 95”

[2] = system: C3H/Hen recipients of T cell depleted BM and high dose CY
Method: Donor (Balb/c) and 3rd party (C57BL/6) skin grafts were transplanted to the mixed chimeric recipients as described above [i.e. to those mice which were previously transplanted with mega dose (25×10^6) T cell depleted BM and were treated with high dose CY] and to the recipient mice that were inoculated with a regular (5×10^6) T cell depleted BM cell dose and were treated with high dose CY.
Tolerance induction was measured by transplantation of donor (Balb/c) and 3rd party (C57BL/6) skin grafts to the mixed chimeric recipients that were transplanted with mega dose (25×10^6) T cell depleted BM and were treated with high dose CY (as described above), in comparison to the recipients that were inoculated with a regular (5×10^6) T cell depleted BM cell dose (as described above).

[3] = 1.0 Gy TBI, 25×10^6 BM, CY 100 mg/kg days +3 and +4, 30 days post transplant
[4] = 2 Gy TBI, 25×10^6 BM, CY 100 mg/kg days +3 and +4, 30 days post transplant
[5] = 2.5, 3 or 3.5 Gy TBI, 25×10^6 BM, CY 100 mg/kg days +3 and +4, 30 days post transplant

O.O=P1(N(CCCl)CCCl)NCCCO1 (stereo not drawn) [CY, 2-[bis(2-chloroethyl)amino]tetrahydro-2H-1,3,2-oxazaphosphorine 2-oxide monohydrate] was tested, and the “effect of increasing CY dose on chimerism” value ([1]; 125 mg/kg or 150 mg/kg versus 100 mg/kg, 25×10^6 BM, 2 Gy TBI, 30 days post transplant) was “did not provide a significant enhancement of chimerism”, the “donor type chimerism range” value [1, 3] was 14.5-58% and the “percentage of chimeric mice” value [1, 3] was 83%. For the same compound, the “donor type chimerism range” value [1, 4] was 56-85%, the “percentage of mice exhibiting donor type chimerism” value [1, 4] was 87% and the chimeric recipient mice [1, 5] was 6/6. The “donor type chimerism range” value [1, 5] was 58-83%, the “mixed chimerism at long term follow-up” value ([1]; 5×10^6 T cell depleted BM + CY, 180 and 225 days post transplant) was “did not exhibit mixed chimerism” and the “effect of CD8+ cell depletion of the BM preparation on level of chimerism” value ([1]; 25×10^6 CD8 depleted vs non-depleted Balb/c-Nude BM, CY 100 mg/kg days +3 and +4, 2.0 Gy TBI, 30 days post transplant) was “did not have any adverse impact”. For the same compound, the “chimerism at long term follow-up” value ([1]; 25×10^6 T cell depleted BM + high dose CY, 180 and 225 days post transplant) was “stable and durable”, the “mice in which durable mix chimerism was achieved” value ([1]; 25×10^6 T cell depleted BM, CY 100 mg/kg days +3 and +4, TCD day −6, 2.0 Gy TBI day −1, day 35 and day 95) was 4 out of 7 and the “average donor type chimerism” value ([1]; CY 100 mg/kg days +3 and +4, 25×10^6 BM, 2 Gy TBI, 30 days post transplant) was 57.5±25.8. The “average donor type chimerism” value ([1]; CY 125 mg/kg days +3 and +4, 25×10^6 BM, 2 Gy TBI, 30 days post transplant) was 66.5±20.6, the “average donor type chimerism” value ([1]; CY 150 mg/kg days +3 and +4, 25×10^6 BM, 2 Gy TBI, 30 days post transplant) was 67.4±27.4 and the “mice expressing donor type chimerism” value ([1]; control mice: TCD, 2 Gy TBI and optionally CY, no BM, day 35 and day 95) was “none”. For the same compound, the “mice expressing donor type chimerism” value ([1]; regular dose 5×10^6 T cell depleted BM, in the presence or absence of cyclophosphamide, TCD, 2 Gy TBI, day 35 and day 95) was “none”, the skin graft outcome ([2]; 5×10^6 T cell depleted BM cells and CY) was “rejected both the donor and 3rd party skin grafts” and the “chimeric mice that accepted the donor graft and rejected the 3rd party skin grafts” value ([2]; 25×10^6 T cell depleted BM + high dose CY days +3 and +4) was “three out of 4”.
